# Results reported in patent US8796230B2, “Ivermectin antagonizes ethanol inhibition in P2X4 receptors” (University of Southern California, priority 2010, dated 2014).
# Changes are numbered by the printed parent chain. Entries after “also recorded” stand apart in the source; their conditions may differ. Like-named read-outs stand apart in the source and are kept apart here.
# Tests used:
# rat P2X4R = target: T1, rat P2X4R (Rattus norvegicus, UniProt P51577); assay: Two-electrode voltage-clamp of ATP EC10-induced currents in WT P2X4Rs expressed in Xenopus oocytes; format: cell-based
# T1 construct: expressed in transfected cells; host or cells: Xenopus laevis oocytes injected with cRNA
# T1 sequence (P51577 1-388): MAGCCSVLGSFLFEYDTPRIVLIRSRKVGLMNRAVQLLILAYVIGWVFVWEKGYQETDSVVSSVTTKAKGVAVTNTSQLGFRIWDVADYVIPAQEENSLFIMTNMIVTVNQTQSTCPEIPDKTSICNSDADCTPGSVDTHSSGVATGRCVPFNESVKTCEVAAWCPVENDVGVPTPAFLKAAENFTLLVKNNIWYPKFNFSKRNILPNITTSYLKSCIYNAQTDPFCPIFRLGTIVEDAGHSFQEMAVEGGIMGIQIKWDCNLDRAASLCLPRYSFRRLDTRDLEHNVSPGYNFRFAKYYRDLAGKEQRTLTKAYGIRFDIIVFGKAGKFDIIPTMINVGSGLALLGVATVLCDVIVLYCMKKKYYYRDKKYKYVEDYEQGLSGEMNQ
# Protocol: Isolation of Xenopus Laevis oocytes and cRNA injections. Xenopus oocytes were isolated and maintained as described previously^18,19. All procedures for the maintenance of Xenopus Laevis frogs and oocyte isolation were approved by The Institutional Animal Care and Use Committee of the University of Southern California. Stage V and VI oocytes were used for cRNA (0.01-5 ng) injections using Nanoject II Nanoliter injection system (Drummond Scientific, Broomall, Pa.) one day after isolation. Injected oocytes were stored at 16° C. in incubation medium containing (in mM), […], theophylline 0.6, pyruvic acid 2.5, with 1% horse serum and 0.05 mg/ml gentamycin. The oocytes were used in electrophysiological recordings for 3-10 days after cRNA injections.
# (§1) Site-directed mutagenesis and cRNA synthesis. The cDNA of rat P2X4R (GenBank accession No. X87763) was sub-cloned into pcDNA3 vector (Invitrogen, Carlsbad, Calif.). Mutagenesis was performed to introduce single point mutations using QuickChange IIXL Site-Directed Mutagenesis kit (Stratagene, La Jolla, Calif.). The sequences of mutant constructs were verified using automated DNA sequencing (USC/Norris DNA Core Facility, University of Southern California).
# The DNA of WT or mutant receptors was linearized and transcribed using the mMESSAGE mMACHINE kit (Ambion, Austin, Tex.) to result in cRNA, which was stored at −70° C. until injection.
# (§2) Whole-cell voltage-clamp recordings. Two-electrode voltage-clamp recordings of oocytes were performed using a Warner Instruments Model OC-725C oocyte clamp amplifier (Hamden, Conn.) using procedures published earlier^5,6.
# (§3) Experimental procedures. To induce currents and test the effects of alcohols and IVM in the present experiments, maximal (100 μM) or submaximal ATP concentrations (EC5-10 furthered referred to as EC10) were used. It has been previously shown that the use of EC10 can maximize the effects of ethanol and minimize receptor desensitization 18,19. The washout time between agonist applications was at least 5-10 min to allow complete re-sensitization of the receptors^18, 19.
# (§4) Effects of the drugs were tested after a stable response to ATP EC10 was obtained. After a sufficient washout time (5-15 min), the cells were challenged with the same ATP EC10 to ensure an accurate response to the drugs and to asses any change in the baseline level.
# (§5) IVM and alcohol applications.
# (§6) Data analysis. Data are obtained from several batches of oocytes of at least 3 different frogs and are expressed as mean±SEM. Ethanol (hexanol) and/or IVM effects are presented as percentage change of peak currents evoked by ATP EC10 alone. Data were fitted to a concentration-response curve by using the following logistic equation: I=Imax*[drug]/([drug]+(EC50)), where I/Imax is the percentage of the maximum obtainable response, EC50 is the concentration producing a half-maximal response. GraphPAD Prism software (San Diego, Calif.) was used for data analysis and curve fitting. Statistical analysis was performed using unpaired t-test with significance set at P<0.05.
# P2X2R = assay: Effect of n-chain alcohols on P2X2R function (unpublished data); format: cell-based
# Text: This possibility was investigated by testing the effects of IVM on another n-chain alcohol. Previous investigations report that short chain alcohols potentiate, whereas long chain alcohols inhibit, native nicotinic acetylcholine receptors (nAChRs) contained in neuromuscular or Torpedo preparations^26-28. This alcohol crossover occurred at approximately butanol in nAChRs expressed in Xenopus oocytes^29. […] It is believed that testing an alcohol that produced potentiation, rather than inhibition, would provide an alternative method of determining if the interaction between ethanol and IVM represented an additive effect.
# [1] = tested on: mutant P2X4Rs at position 336; conditions: cited from earlier work
# rat WT P2X4 receptor = target: T2, rat WT P2X4 receptor (Rattus norvegicus, UniProt P51577); assay: Comparison of Ivermectin analogues: two-electrode voltage-clamp of ATP EC10 currents in rat WT P2X4 receptor in Xenopus oocytes; format: cell-based; conditions: for potentiation of ATP-induced currents, concentration dependence: co-application and pre-incubation (FIGS. 10C and 10D)
# T2 construct: expressed in transfected cells; host or cells: Xenopus laevis oocytes injected with cRNA
# T2 sequence (P51577 1-388): T1 sequence (P51577 1-388)
# Protocol: Isolation of Xenopus Oocytes and cRNA Injections. Xenopus laevis frog (Nasco; WI) maintenance, oocyte isolation and cRNA injections were performed according to protocols as described previously (11,12,24).
# Transcription of cDNA to cRNA. XL-Blue E. coli competent cells (Stratagene; CA) were transformed with rat WT P2X4 receptor cDNAs cloned into pcDNA3 vector (Invitrogen; CA). The isolated DNA was linearized and transcribed to result in capped cRNA, which was dissolved in nuclease-free water and stored at −70° C. until injection.
# Whole-Cell Voltage Clamp Recording. […] Electrodes were prepared and used to impale the oocyte that was continuously perfused at the rate of 3-4 ml/min by extracellular bathing solution per procedures previously published (11,12,24). The peak currents recorded using a strip-chart recorder (Barnstead/Thermolyne, Iowa) were used in data analysis. All experiments were performed at room temperature (20-23° C.).
# Experimental Procedures. Maximal ATP currents were induced by 15 s application of 100 μM ATP. Submaximal ATP concentrations (EC10) were applied for 20 s to generate currents. Ethanol and ABM/IVM were co-applied with ATP EC10. Washout time between drug applications was at least 5 min.
# Data Analysis. Data are obtained from several batches of at least 3 different oocyte batches and are presented as percentage change of peak currents evoked by ATP EC10 alone±SEM. GraphPAD Prism software (San Diego, Calif.) was used for data analysis and curve fitting. Statistical analysis was performed using Student's unpaired t-test and significance set at P<0.05.
# male C57BL/6 mice = conditions: for decrease in alcohol consumption: 10% alcohol, 24 hour access
# [2] = target: T3, mutant P2X4Rs at position 336 (Rattus norvegicus, UniProt P51577, M336Q); assay: Two-electrode voltage-clamp of ATP-induced currents in mutant P2X4Rs with substitutions at position 336 in Xenopus oocytes; format: cell-based; conditions: Met336 substituted with Gln; IVM 3 μM
# T3 construct: expressed in transfected cells; host or cells: Xenopus laevis oocytes injected with cRNA
# T3 sequence (P51577 1-388 M336Q): T1 sequence (P51577 1-388) with M336Q
# Protocol: as §1, §2, §3, §4, §5, §6
# [3] = tested on: mutant P2X4Rs at position 336; assay: as above; format: cell-based, rat; conditions: IVM 3 μM
# Protocol: as §1, §2, §3, §4, §5, §6
# P2X4Rs = target: T4, P2X4Rs (Rattus norvegicus, UniProt P51577); assay: Surface biotinylation and Western blotting of P2X4R surface expression in oocytes; format: cell-based; conditions: 3 μM IVM in the presence of 1 μM ATP; 20 s and 2 min
# T4 construct: expressed in transfected cells; host or cells: Xenopus laevis oocytes injected with cRNA
# T4 sequence (P51577 1-388): T1 sequence (P51577 1-388)
# Protocol: Surface biotinylation and Western blotting. Oocytes expressing P2X4R cRNA were treated with 3 μM IVM in the presence and absence of 1 μM ATP and incubated with 1.0 mg/ml membrane-impermeable sulfo-NHS-SS-biotin (Pierce Biotechnology, Rockford, Ill.) for 1 hr on ice. After lysis, the biotinylated proteins were precipitated by overnight incubation with streptavidin beads (Pierce Biotechnology) and extracted using SDS sample buffer. Protein lysates of total and biotinylated fractions were then run on 10% SDS-PAGE, transferred to PVDF membranes and blotted with a rabbit P2X4R antibody (Millipore, Temecula, Calif.). Following incubation with the secondary anti-rabbit antibody, the P2X4R bands were visualized using enhanced chemiluminescence (Pierce Biotechnology).
# uninjected oocytes = assay: Resting membrane currents in uninjected oocytes
# Text: IVM and alcohol applications. […] To allow comparison of the effects of IVM with those of ethanol, the same co-application protocol was used for IVM.
# C57BL/6 mice = assay: Two-bottle choice ethanol (10E versus water) intake in C57BL/6 mice
# Protocol: Based on the initial experiments, a second study was conducted using a similar research design strategy with the following changes. Using a within subjects design, alcohol drinking was allowed to stabilize (based on DOSE approximately 10 g/kg) with a new set of C57Bl mice (n=15). […] On intervening days, the mice were injected with saline. After 3 days of saline injections (allowing for alcohol drinking to restabilize back to ‘baseline’ levels), the mice were injected with a single, higher dose of IVM (5.0 mg/kg). Once again drinking was allowed to re-established back to baseline.
molecule,measurement,setting,value
butanol,effect on ATP-induced currents in P2X4R,rat P2X4R; butanol (C4) 50 mM,minimal effect
same,effect on ATP-induced currents in P2X4R,"rat P2X4R; butanol (C4) 50 mM, listed as Butanol",minimal effects
same,effect on P2X2R function,P2X2R,potentiates
CCCCCCO [hexanol],effect on ATP-induced currents in P2X4R,rat P2X4R; hexanol (C6) 10 mM,significantly potentiated; also recorded: significant potentiation
CCO [ethanol],inhibition at 25000 µM,"rat P2X4R; 25 mM ethanol, delivered separately, ATP EC10, read-out: inhibition of ATP-gated currents in P2X4Rs",9 ± 2.3%
same,effect on ATP EC10-induced currents in P2X4Rs,"rat P2X4R; ethanol 25-200 mM co-applied with ATP, concentration-dependent and reversible",inhibited
same,effect on ATP-induced currents in P2X4R,rat P2X4R; ethanol (C2) 200 mM,inhibited
same,effect on P2X2R function,P2X2R,inhibit
same,sensitivity of the receptor to ethanol,"[1]; Ala, Val at position 336",reduced
same,sensitivity of the receptor to ethanol,[1]; Arg or Glu at position 336,insensitive
Selamectin,potency in modulating P2X4R activity relative to IVM (lower potency),rat WT P2X4 receptor,3-5 fold
same,antagonism of the inhibitory effects of ethanol,"rat WT P2X4 receptor; SEL at 3 and 10 mM, 50 mM ethanol, co-application",antagonistic effect
same,"potentiation of ATP-induced currents, concentration dependence",rat WT P2X4 receptor,small concentration-independent potentiation
same,potentiation of P2X4Rs,rat WT P2X4 receptor; only at 10 μM SEL during co-application,Significant potentiation
same,potentiation with the pre-incubation protocol versus co-application,rat WT P2X4 receptor; pre-incubation,higher potentiation
same,ethanol intake in mice,"male C57BL/6 mice; mouse, in vivo",no effect
"CC[C@H](C)[C@H]1O[C@]2(CC[C@@H]1C)C[C@@H]1C[C@@H](C/C=C(\C)[C@@H](O[C@H]3C[C@H](OC)[C@@H](O[C@H]4C[C@H](OC)[C@@H](O)[C@H](C)O4)[C@H](C)O3)[C@@H](C)/C=C/C=C3\CO[C@@H]4[C@H](O)C(C)=C[C@@H](C(=O)O1)[C@]34O)O2 [IVM, 5-O demethyl-22,23-dihydroavermectin A1a]",antagonism of the inhibitory effect of ethanol on ATP-activated currents,rat P2X4R; 0.5 μM IVM co-applied with 25 mM ethanol,completely antagonized
same,potentiation of ATP-gated currents in P2X4Rs,"rat P2X4R; 0.5 μM IVM, delivered separately, ATP EC10",31±4.9%
same,antagonism of the inhibitory effects of ethanol,"rat P2X4R; IVM 0.5 μM, 200 mM ethanol",did not significantly alter
same,antagonism of the inhibitory effects of ethanol,"rat P2X4R; IVM 0.5 μM, 50 and 100 mM ethanol",completely antagonized
same,effect on ATP-induced currents in P2X4R,rat P2X4R; IVM 3 μM applied individually,significantly potentiated
same,net result of exposure to both IVM and hexanol versus additive effects,rat P2X4R; IVM 3 μM with hexanol 10 mM,significantly less
same,combined action of IVM and ethanol versus estimated additive values of the individual effects,"rat P2X4R; IVM 0.5, 1 and 3 μM with ethanol 50, 100, 200 mM",significantly lower
same,antagonism of the inhibitory effects of ethanol,"rat P2X4R; IVM 1.0 and 3.0 μM, all ethanol concentrations (50-200 mM)",completely antagonizing
same,effect on EC10 ATP-gated currents in P2X4Rs,"rat P2X4R; IVM co-applied with ATP, concentration-dependent and reversible",significantly potentiated
same,IVM sensitivity compared to non-polar bulky substitutions,[2],approximately the same effect
same,degree of IVM potentiation compared to WT P2X4Rs,[3]; Met336 substituted with Ala or Val,markedly increased
same,sensitivity to IVM,[3]; Met336 substituted with Arg or Glu,eliminated sensitivity
same,degree of IVM potentiation compared to WT P2X4Rs,[3]; Met336 substituted with Phe or Trp,increased IVM potentiation
same,surface expression levels of P2X4Rs in oocytes,P2X4Rs,did not change
same,antagonism of the inhibitory effects of ethanol,rat WT P2X4 receptor; IVM co-applied with ethanol (FIGS. 9A and B),antagonizes
same,"potentiation of ATP-induced currents, concentration dependence",rat WT P2X4 receptor,concentration dependent
same,decrease in alcohol consumption,male C57BL/6 mice; IVM 2.5 mg/kg,32%
same,decrease in alcohol consumption,male C57BL/6 mice; IVM 10 mg/kg,50%
same,resting membrane currents in uninjected oocytes,uninjected oocytes,did not affect
same,average water consumption,C57BL/6 mice; IVM 10 mg/kg intraperitoneally,significant increase
same,ethanol intake,C57BL/6 mice; IVM 10 mg/kg intraperitoneally,non-significant reduction
same,daily 10E preference,"C57BL/6 mice; IVM 10 mg/kg intraperitoneally prior to each day of access, 4 days, versus saline",strong trend
same,10E preference on day 3,"C57BL/6 mice; IVM 10 mg/kg intraperitoneally, day 3",significantly lower
same,ethanol consumption,"C57BL/6 mice; single injection of IVM 2.5 mg/kg and 5.0 mg/kg, within subjects design, versus baseline with saline",significantly reduced
CCCO [propanol],effect on P2X2R function,P2X2R,inhibit
Abamectin [ABM],antagonism of the inhibitory effects of ethanol,"rat WT P2X4 receptor; ABM 0.5 μM, 25 and 50 mM ethanol",antagonizes
same,antagonism of the inhibitory effects of ethanol,"rat WT P2X4 receptor; ABM 1.0 μM, all ethanol concentrations tested",able to antagonize
same,potency in modulating P2X4R activity relative to IVM (more potent),rat WT P2X4 receptor; higher concentrations (≧3 μM),3-10 fold
same,potentiation of P2X4R activity compared with IVM,rat WT P2X4 receptor; lower concentrations (0.5 and 1.0 μM),to the same degree as IVM
